Reference: patent US10149855B2, “Gamma-secretase inhibition reduce APOC3 levels and plasma triglycerides” (THE TRUSTEES OF COLUMBIA UNIVERSITY IN THE CITY OF NEW YORK, priority 2014, dated 2018)

Assays:
[1] = tested on: Lean mice, diet induced obese (DIO) mice, and leptin-deficient obese (ob/ob) mice; assay: Weight, glucose and insulin of mice administered GSI (DBZ) or vehicle; type: in vivo
Procedure: Lean mice, diet induced obese (DIO) mice, and leptin-deficient obese (ob/ob) mice were administered either vehicle or GSI. [table]

[2] = tested on: DIO mice; assay: Fasted/refed plasma glucose and glucose clearance in GSI-treated mice; type: in vivo; conditions: compared to vehicle (FIG. 3 Panel A)
[3] = tested on: lean, diet-induced obese (DIO) and leptin-deficient obese (ob/ob) mice; assay: Plasma/serum triglyceride levels in mice treated with GSI or vehicle; type: in vivo
Procedure: Mice were administered GSI or vehicle alone to determine the effect of GSI treatment on serum triglyceride levels. […] Plasma triglyceride lowering in genetic (leptin deficient ob/ob mice) or diet-induced mouse models of obesity was even more profound, with reductions approaching 75% of vehicle-treated animals. […] L-Ncst mice had similar reductions in plasma triglyceride as GSI-treated mice, proof that the mechanism of GSI-induced reduction in plasma triglyceride is through effects on liver. L-Ncst mice had approximately 40% reduced plasma triglyceride as compared to control mice when fed normal chow, but this rises to a staggering 70% reduction when mice were challenged with high-fat diet feeding. […] As such, gamma-secretase inhibition with GSIs or liver-specific gamma-secretase blockers would be predicted to have a greater, and perhaps synergistic, effect in reducing plasma triglyceride as compared to drugs that solely target ApoC3 expression.

[4] = tested on: mice; conditions: mouse, in vivo
[5] = tested on: mice; assay: Triglyceride secretion after lipoprotein lipase inhibition with Poloxamer 407; type: in vivo; conditions: plasma TG after lipoprotein lipase inhibition with Poloxamer 407 (FIG. 7)
Text: DBZ-induced lower plasma TG in diet-induced obese (DIO) and leptin-deficient obese (ob/ob) mice is in the VLDL fraction. […] To differentiate these—we created a liver-specific gamma-secretase knockout mouse.

[6] = tested on: ApoC3; assay: Plasma ApoC3 levels in GSI-treated mice; type: in vivo
Text: Plasma triglyceride lowering in genetic (leptin deficient ob/ob mice) or diet-induced mouse models of obesity was even more profound, with reductions approaching 75% of vehicle-treated animals. […] L-Ncst mice had similar reductions in plasma triglyceride as GSI-treated mice, proof that the mechanism of GSI-induced reduction in plasma triglyceride is through effects on liver. L-Ncst mice had approximately 40% reduced plasma triglyceride as compared to control mice when fed normal chow, but this rises to a staggering 70% reduction when mice were challenged with high-fat diet feeding. […] As such, gamma-secretase inhibition with GSIs or liver-specific gamma-secretase blockers would be predicted to have a greater, and perhaps synergistic, effect in reducing plasma triglyceride as compared to drugs that solely target ApoC3 expression.

[7] = tested on: Nicastrin; assay: shRNA-mediated knockdown of Nicastrin, ApoC3 secretion; type: cell-based; conditions: mouse hepatocytes (FIG. 25)

| Molecule | Glucose ([1]; DIO mice) | Insulin ([1]; DIO mice) | Glucose ([1]; lean mice) | Insulin ([1]; lean mice) | Glucose ([1]; ob/ob mice) | Insulin ([1]; ob/ob mice) | fasted and refed glucose [2] | triglycerides in VLDL, LDL and HDL fractions ([3]; DIO and ob/ob mice (FIG. 5)) | plasma triglyceride ([3]; lean mice) | plasma triglyceride reduction ([3]; ob/ob or diet-induced obese mice, relative to vehicle-treated animals) | plasma triglyceride (TG) ([3]; obese mice (DIO and ob/ob), compared to vehicle (FIG. 4)) | gastrointestinal (GI) toxicity [4] | TG secretion [5] | plasma ApoC3 levels [6] | ApoC3 secretion [7] |
| --- | --- | --- | --- | --- | --- | --- | --- | --- | --- | --- | --- | --- | --- | --- | --- |
| C[C@H](NC(=O)Cc1cc(F)cc(F)c1)C(=O)N[C@@H]1C(=O)N(C)c2ccccc2-c2ccccc21 [GSI, N-[(1S)-2-[[(7S)-6,7-dihydro-5-methyl-6-oxo-5H-dibenz[b,d]azepin-7-yl]amino]-1-methyl-2-oxoethyl]-3,5-difluoro-benzeneacetamide] | 72 ± 5 mg/dL | 1.33 ± 0.32 ng/mL | 64 ± 2 mg/dL | 0.49 ± 0.04 ng/mL | 98 ± 6 mg/dL | 15.6 ± 3.25 ng/mL | reduced both fasted as well as refed (or exogenous) glucose | lowered triglycerides in the VLDL fraction | reduces plasma triglyceride in a dose-dependent manner | ~75% | lower plasma triglyceride | not associated with apparent gastrointestinal (GI) toxicity | does not affect TG secretion | markedly and proportionately reduced |  |
| SEQ ID NO. 59: shRNA for knockdown of Nicastrin, sequence CTCCTTCCACAATCGGTATTA (listed as DNA, chemistry not fully specified; listed as Rattus norvegicus) |  |  |  |  |  |  |  |  |  |  |  |  |  |  | reduces ApoC3 secretion |
